Laboratory results published in paper PMC8041284, “Tunable Methacrylamides for Covalent Ligand Directed Release Chemistry” (Journal of the American Chemical Society, 2021).
Like-named read-outs stand apart in the source and are kept apart here.

Target: BTK (Homo sapiens, UniProt Q06187)
Experiment: biochemical
[1] = read-out: BTK inhibition (%), 0.75 uM BTK, […] probe 3l, 15 min preincubation

BTK, sequence (Q06187 402-655 limits assumed): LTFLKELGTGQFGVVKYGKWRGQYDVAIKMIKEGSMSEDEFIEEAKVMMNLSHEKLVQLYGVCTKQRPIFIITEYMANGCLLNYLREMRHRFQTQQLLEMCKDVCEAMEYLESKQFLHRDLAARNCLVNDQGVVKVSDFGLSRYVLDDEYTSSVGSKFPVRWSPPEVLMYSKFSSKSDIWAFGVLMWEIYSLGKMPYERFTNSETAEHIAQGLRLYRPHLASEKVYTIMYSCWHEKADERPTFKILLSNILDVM

| inhibition at 10 µM [1] | Structure (SMILES) | inhibition at 10 µM (read-out: BTK inhibition (%)) |
| --- | --- | --- |
| -11% | CO[C@@H](C)Cn1c(=O)n(C)c2cnc3ccc(-c4cncc(C(C)(C)O)c4)cc3c21 [PCM-0215675] | – |
| -2.3% | C=C(C)C1CC=C(/C=N/O)CC1 (stereo not shown) [PCM-0216339] | – |
| 12.4% | Cc1c(C)c(NCC(=O)N(C)C2CCN(Cc3ccc(C(N)=O)cc3)CC2)c(C)c(C)c1N [PCM-0215800] | – |
| -3.4% | CC[C@H](C)[C@H](N)C(=O)N[C@H]1CSSC[C@@H](C(=O)N[C@H](C(N)=O)[C@@H](C)O)NC(=O)[C@H](CCCN=C(N)N)NC(=O)[C@H](Cc2cnc[nH]2)NC(=O)[C@H](Cc2cnc[nH]2)NC(=O)CNC(=O)[C@H](Cc2c[nH]c3ccccc23)NC(=O)[C@H](CC(=O)O)NC(=O)[C@H](CCC(N)=O)NC(=O)[C@H](C(C)C)NC(=O)[C@H](C(C)C)NC1=O [PCM-0215822] | – |
| -5.4% | O=C(Oc1cccc(F)c1OC(=O)c1cccc(O)c1)c1cccc(O)c1 [PCM-0215618] | – |
| 4.3% | N[C@@H](CO)C(=O)O [PCM-0216618] | – |
| 22.4% | CO[C@H]1/C=C/O[C@@]2(C)Oc3c(C)c(O)c4c(O)c(cc(O)c4c3C2=O)NC(=O)/C(C)=C\C=C\[C@H](C)[C@H](O)[C@@H](C)[C@@H](O)[C@@H](C)[C@H](OC(C)=O)[C@@H]1C [PCM-0216568] | – |
| -10% | COc1cc2oc(=O)ccc2cc1O [PCM-0216502] | – |
| -14.7% | COc1ccccc1 [PCM-0216198] | – |
| 13.9% | CC(=O)O[C@H]1CC(=O)OC(C)(C)[C@@H]2CC(=O)[C@]3(C)[C@H](CC[C@@]4(C)[C@H](c5ccoc5)OC(=O)[C@H]5O[C@]543)[C@@]12C [PCM-0216014] | – |
| -17% | Cn1c(O)c(C2=c3ccccc3=NC2=O)c2ccccc21 [PCM-0216129] | – |
| 16.2% | COc1cc(C(=O)N(CCCc2ccccc2)Cc2ccc(CC(=O)O)cc2)cc(OC)c1C [PCM-0215725] | – |
| 100% | CC(C)=CCC/C(C)=C/Cc1c(O)c(CC=C(C)C)c2c(c1O)C(=O)C1=C[C@@H]3C[C@H]4C(C)(C)O[C@@](C/C=C(/C)C(=O)O)(C3=O)[C@@]14O2 [PCM-0216347] | – |
| -8.5% | CN1CCc2cc(Nc3ncc(C4CC4)c(NCCCNC(=O)C4CCC4)n3)ccc2C1 [PCM-0215643] | – |
| -4.1% | O=C1C(=Cc2ccncc2)CCCC1=Cc1ccncc1 [PCM-0216087] | – |
| 8.5% | CCOC(=O)N1CCN(c2ccc(OC[C@H]3CO[C@](Cn4ccnc4)(c4ccc(Cl)cc4Cl)O3)cc2)CC1 [PCM-0216072] | – |
| 12.4% | O=C(Nc1cc(Cl)cc2c1[nH]c1cnccc12)c1cccnc1 [PCM-0215579] | – |
| 17.9% | CSCCC(N)C(=O)O (stereo not shown) [PCM-0216617] | – |
| -14.7% | CCOC(=O)C=P(c1ccccc1)(c1ccccc1)c1ccccc1 [PCM-0216183] | – |
| -23.9% | O=C(O)c1ccc(Br)c(O)c1 [PCM-0216168] | – |
| 6.9% | Cc1[nH]nc(C(F)(F)F)c1Cc1sc2c(c1C(=O)N1C[C@](C)(O)CO1)c(=O)n(C)c(=O)n2C(C)C [PCM-0215606] | – |
| -6.9% | CS(=O)(=O)c1ccc(-c2cnc(NCc3ccco3)n3cnnc23)cc1 [PCM-0215813] | – |
| 71.7% | Cc1cc(Nc2ncnc3ccc(NC4=NC(C)(C)CO4)cc23)ccc1Oc1ccn2ncnc2c1 [PCM-0215734] | – |

The next lines start with the molecule.

| Structure (SMILES) | inhibition at 10 µM [1] | inhibition at 10 µM (read-out: BTK inhibition (%)) |
| --- | --- | --- |
| C/C=C(/C)C(=O)O[C@H]1Cc2cc3ccc(=O)oc3cc2OC1(C)C [PCM-0214953] | 0.8% | – |
| O=C(NN=Cc1ccc(O)c(O)c1)c1cc2ccccc2cc1O [PCM-0215235] | 32.4% | – |
| CN1CCC[C@H]1c1cccnc1 [PCM-0215258] | -1.6% | – |
| CC(C)c1cc2c(N3CCN(C4=NCC(C)(C)S4)CC3)ncnc2s1 [PCM-0215379] | -7.7% | – |
| CCCCC(=O)OCC(=O)[C@H]1[C@H](C)C[C@H]2[C@@H]3C[C@H](F)C4=CC(=O)C=C[C@]4(C)[C@@]3(F)[C@@H](O)C[C@@]21C [PCM-0216248] | 2.3% | – |
| C[C@H](Nc1ncnc2nc[nH]c12)c1cc2ccc(F)cc2nc1-c1ccccn1 [PCM-0215539] | 3.4% | – |
| Cc1ccc(C(=O)N(CCCN)[C@@H](c2nc3cc(Cl)ccc3c(=O)n2Cc2ccccc2)C(C)C)cc1 [PCM-0095123] | 11.7% | – |
| CC(C)(O)[C@H]1CC[C@@](C)([C@H]2[C@@H](O)C[C@@]3(C)[C@@H]4C[C@H](O[C@@H]5O[C@H](CO)[C@@H](O)[C@H](O)[C@H]5O)[C@H]5C(C)(C)[C@@H](O[C@@H]6OC[C@@H](O)[C@H](O)[C@H]6O)CC[C@@]56C[C@@]46CC[C@]23C)O1 [PCM-0214684] | 5.4% | – |
| O=C(O)c1cc(=O)c2c(OCC(O)COc3cccc4oc(C(=O)O)cc(=O)c34)cccc2o1 [PCM-0086401] | 2.6% | – |
| Clc1ccc(C(Cn2ccnc2)OCc2c(Cl)cccc2Cl)c(Cl)c1 (stereo not shown) [PCM-0085849] | 38.9% | – |
| CN[C@@H]1[C@@H](O)[C@@H](O[C@@H]2[C@@H](O)[C@H](O[C@H]3O[C@H](CN)[C@@H](O)[C@H](O)[C@H]3O)[C@@H](N)C[C@H]2NC(=O)[C@@H](O)CN)OC[C@]1(C)O [PCM-0215401] | 4.3% | – |
| Cc1cncc(CN2CCC(=C3c4ccc(Cl)cc4CCc4cccnc43)CC2)c1 [PCM-0095542] | -7.6% | – |
| O=c1sn(-c2cccc3ccccc23)c(=O)n1Cc1ccccc1 [PCM-0095450] | -12.4% | – |
| CC[C@H]1OC(=O)[C@H](C)[C@@H](O[C@H]2C[C@@](C)(OC)[C@@H](O)[C@H](C)O2)[C@H](C)[C@@H](O[C@@H]2O[C@H](C)C[C@H](N(C)C)[C@H]2O)[C@](C)(OC)C[C@@H](C)C(=O)[C@H](C)[C@@H](O)[C@]1(C)O [PCM-0214635] | 9.3% | – |
| N/C(=N\N=C\c1ccc(Cl)cc1)N/N=C/c1ccc(Cl)cc1 [PCM-0215125] | 77.8% | – |
| COc1cc2nccc(Oc3ccc(NC(=O)Nc4cc(C)on4)c(Cl)c3)c2cc1OC [PCM-0094927] | 84.1% | – |
| Cc1cc(C(=O)CN2CCCC2)c(C)n1-c1ccc(F)cc1 [PCM-0215202] | – | 5.4% |
| C/C(O)=C(\C#N)C(=O)Nc1cc(Br)ccc1Br [PCM-0215429] | -1.4% | – |
| Cc1cc(Cn2cnc3c2C[C@@H](C(=O)O)N(C(=O)C(c2ccccc2)c2ccccc2)C3)ccc1N(C)C [PCM-0215225] | 6.2% | – |
| C=CC(=O)N1CC/C(=C\c2ccc(F)c([N+](=O)[O-])c2)C(=O)/C(=C/c2ccc(F)c([N+](=O)[O-])c2)C1 [PCM-0215820] | 31.7% | – |
| OC[C@@H](O)[C@@H](O)[C@H](O)[C@H](O)CO [PCM-0094876] | -17.1% | – |
| Nc1ncnc2c1C(=O)N(c1ccc(C3CCC(CC(=O)O)CC3)cc1)CCO2 (stereo not shown) [PCM-0095810] | 3.1% | – |
| CCC(=O)OCC(=O)[C@@]1(OC(=O)CC)[C@@H](C)C[C@H]2[C@@H]3CCC4=CC(=O)C=C[C@]4(C)[C@@]3(F)[C@@H](O)C[C@@]21C [PCM-0095138] | -9.3% | – |
| O=c1[nH]c2ccccc2n1C1CCN(Cc2ccc(-c3[nH]c4cc5ncnc5cc4nc3-c3ccccc3)cc2)CC1 [PCM-0215535] | 18.6% | – |

| Structure (SMILES) | inhibition at 10 µM [1] | inhibition at 10 µM (read-out: BTK inhibition (%)) |
| --- | --- | --- |
| O=CN1CC/C(=C\c2ccc3c(c2)OCO3)C1=O [PCM-0215470] | 10.8% | – |
| O=C(/C=C/c1ccc2ccccc2n1)c1ccncc1 [PCM-0215310] | 11.7% | – |
| CC(O)(P(=O)(O)O)P(=O)(O)O [PCM-0086550] | -27.2% | – |
| CN1[C@@H]2CC(O)C[C@H]1[C@@H]1O[C@@H]12 (stereo partly shown) [PCM-0095322] | -2.3% | – |
| CS(=O)(=O)c1ccc([C@@H](O)[C@@H](CO)NC(=O)C(Cl)Cl)cc1 [PCM-0085804] | -8.6% | – |
| C[C@H]1CO[C@@H]2Cn3cc(C(=O)NCc4ccc(F)cc4F)c(=O)c(O)c3C(=O)N12 [PCM-0215445] | 24.7% | – |
| CCOC(=O)c1[nH]c2cc(Cl)ccc2c1C(C(=O)NC(C)(C)C)N(C=O)Cc1ccc(Cl)cc1 (stereo not shown) [PCM-0095744] | 13.1% | – |
| Cc1c(-c2ccnn2C)cc(C(=O)NCc2ccc(S(C)(=O)=O)cn2)c(=O)n1-c1cccc(C(F)(F)F)c1 [PCM-0215318] | -3.1% | – |
| COC(=O)Nc1nc2ccc(C(=O)c3ccc(F)cc3)cc2[nH]1 [PCM-0086402] | -3.4% | – |
| NCc1c[nH]c(=S)n1[C@H]1CCc2c(F)cc(F)cc2C1 [PCM-0214705] | -17.1% | – |
| C[C@@H](O)[C@H]1C(=O)N2C(C(=O)O)=C(S[C@@H]3CN[C@H](C(=O)N(C)C)C3)[C@H](C)[C@H]12 [PCM-0095036] | -14.8% | – |
| CC(C)Oc1ccc(C(=O)N[C@H](CNC(=O)CN(C)C)Cc2ccc(-c3cn4cccc([C@H](C)O)c4n3)cc2)cc1Cl [PCM-0215312] | -30.9% | – |
| Cc1ccc(C(=O)Cn2c3c(sc2=N)CCCC3)cc1 [PCM-0095433] | -11.7% | – |
| C=C[C@@H]1C[C@]1(NC(=O)[C@@H]1C[C@@H]2CN1C(=O)[C@H](C(C)(C)C)NC(=O)O[C@@H]1C[C@H]1CCCCCc1nc3ccc(OC)cc3nc1O2)C(=O)NS(=O)(=O)C1CC1 [PCM-0214895] | -13.2% | – |
| CCCCC1=NC2(CCCC2)C(=O)N1Cc1ccc(-c2ccccc2-c2nn[nH]n2)cc1 [PCM-0090383] | 4.3% | – |
| COCCOc1ccc2c(c1)ncn2-c1ccc2cccc(N3CCC(N)CC3)c2n1 [PCM-0095094] | -18.6% | – |
| CCCCCCCCCCCC(=O)O [PCM-0214847] | -69.3% | – |
| COc1c(O[C@@H]2O[C@H](CO)[C@@H](O)[C@H](O)[C@H]2O)cc2occ(-c3ccc(O)cc3)c(=O)c2c1O [PCM-0215052] | -3.1% | – |
| CC1(C)S[C@@H]2[C@H](NC(=O)C(C(=O)O)c3ccccc3)C(=O)N2[C@H]1C(=O)O (stereo partly shown) [PCM-0214723] | 10.1% | – |
| CC(C)N(CCC(C(N)=O)(c1ccccc1)c1ccccn1)C(C)C (stereo not shown) [PCM-0065027] | 5.4% | – |
| CCC(C)(Oc1ccc(C2(c3ccc(OC(C)(CC)C(=O)O)cc3)CCCCC2)cc1)C(=O)O (stereo not shown) [PCM-0095329] | 15.6% | – |
| CO/N=C(\C(=O)N[C@@H]1C(=O)N2C(C(=O)[O-])=C(C[n+]3cccc4c3CCC4)CS[C@H]12)c1csc(N)n1 [PCM-0214899] | -4.7% | – |
| Cc1cnc(-c2cc(N3CCN(C(=O)CCS(C)(=O)=O)CC3)ncc2Cl)c(C)c1 [PCM-0095343] | 7.8% | – |
